This is an account of results in patent US7709636B2, “Pyrazole sulfonylurea compound and herbicide” (Nissan Chemical Industries, Ltd., priority 2004, dated 2010).

Structures are written as SMILES.

For series [1], the system named is Echinochloa crus-galli. As to the kind of experiment: Herbicidal effect test in submerged condition by treatment before weed-generation (1). Conditions: 0.64 g/a, water surface treated on day of sowing, 3 weeks after treatment. In kind it is in vivo. The method, boiled down: (§1)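 Treatment was made before weed emergence by applying the diluted wettable powder to the flood water (4 cm) on the day of sowing, with rice transplanted at the 2.5th leaf stage. After 3 weeks in a greenhouse (25 to 30° C), effect was graded 0–5.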

Series [2] has as its system Monochoria vaginalis. The series is described as above. In kind it is in vivo. The note with it: 0.64 g/a, water surface treated on day of sowing, 3 weeks after treatment. The method, boiled down: as §1
Series [3] relates to Scirpus juncoides. Described as above. It is filed as in vivo. Conditions: 0.64 g/a, water surface treated on day of sowing, 3 weeks after treatment. The gist of the method:
as §1

Series [4] deals with Echinochloa crus-galli. The series can be described thus: Herbicidal effect test in submerged condition by treatment during weed-growth stage (1). In kind it is in vivo. The note with it: 0.64 g/a, treated at 1st to 2nd leaf stage, 3 weeks after treatment. The method, boiled down:
(§2)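 Paddy-soil pots flooded to 4 cm water depth were sown and grown in a greenhouse at 25 to 30° C until weeds reached 1st to 2nd leaf stage. A wettable powder diluted in water to a predetermined formulation amount was applied to the water surface. Herbicidal effect was scored 3 weeks after treatment against set criteria.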

The subject of series [5] is Monochoria vaginalis. Described as above. It is filed as in vivo. Conditions: 0.64 g/a, treated at 1st to 2nd leaf stage, 3 weeks after treatment. The method, boiled down:
as §2

Series [6] has as its system Scirpus juncoides. The description is as above. In kind it is in vivo. Conditions: 0.64 g/a, treated at 1st to 2nd leaf stage, 3 weeks after treatment. The method, boiled down: as §2
Series [7] deals with Echinochloa crus-galli. As to the kind of experiment: Herbicidal effect test in submerged condition by treatment before weed-generation (2). In kind it is in vivo. The note with it: 0.3 g/a; submerged paddy soil pot, water surface treated on day of sowing; 3 weeks after treatment. Here is the method:
(§3) Herbicidal Effect Test in Submerged Condition by Treatment Before Weed-Generation (2)
(§4) Paddy surface soil was placed in a plastic pot of 1/10000 are, water was poured therein and mixed. After seeds of Scirpus juncoides were sown, paddy surface soil was added by 2 cm, and submerged with water, and then seeds of Echinochloa crus-galli, Scirpus juncoides, Monochoria vaginalis, Rotala indica and Lindernia pyxidaria were sown together. In addition, rice seedlings at 2.5th leaf stage were transplanted, and fixed to the paddy surface in a state where the roots were exposed on the other side. On the day when the seeds were sown, the wettable powder of the present invention prepared according to Formulation Example 1 was diluted with water so as to give a predetermined formulation amount, and the surface of the water was treated with the diluted wettable powder. The plants were grown by putting the pot in a green house at 25 to 30° C. The herbicidal effect for each plant was investigated 3 weeks after treatment with the herbicide according to the criteria indicated in Test Example 1.

The test system of a further series is Lindernia pyxidaria. The series is described as above. It is filed as in vivo. The note with it: 0.3 g/a; submerged paddy soil pot, water surface treated on day of sowing; 3 weeks after treatment. Here is the method:
as §3, §4

Series [8] deals with Monochoria vaginalis. The series is described as above. The note with it: 0.3 g/a; submerged paddy soil pot, water surface treated on day of sowing; 3 weeks after treatment. It is filed as in vivo. Here is the method:
as §3, §4

Another series has as its system Rotala indica. The description is as above. It is filed as in vivo. Conditions: 0.3 g/a; submerged paddy soil pot, water surface treated on day of sowing; 3 weeks after treatment. Here is the method: as §3, §4
In series [9] the test system is Scirpus juncoides. The description is as above. In kind it is in vivo. Conditions: 0.3 g/a; submerged paddy soil pot, water surface treated on day of sowing; 3 weeks after treatment. The procedure:
as §3, §4

Series [10] concerns transplanted rice (Oryza sativa). The description is as above. In kind it is in vivo. The note with it: 0.3 g/a; submerged paddy soil pot, rice seedlings at 2.5th leaf stage transplanted; 3 weeks after treatment. The procedure:
as §3, §4

Series [11] has as its system rice transplanted at a depth of 0 cm. The series is described as above. In kind it is in vivo, Oryza sativa. The note with it: 0.3 g/a; submerged paddy soil pot, seedlings fixed to paddy surface with roots exposed; 3 weeks after treatment. Here is the method:
as §3, §4

Series [12] relates to transplanted rice (Oryza sativa). The series can be described thus: Crop injury test on rice in water leakage condition. Conditions: 0.15 g/a; water leakage 2 cm/day x 3 days; treated on third day after transplantation; 3 weeks after treatment. In kind it is in vivo. Here is the method: Crop Injury Test on Rice in Water Leakage Condition A mixed soil of alluvial soil and diluvial soil was placed in a plastic pot perforated at the bottom of 1/10000 are, water was poured therein and mixed, and then rice seedlings at 2.5th leaf stage were transplanted. Water leakage treatment was carried out by placing the pot in a plastic vat, and controlling the amount of water in the vat kept at a condition of 2 cm/day×3 days. The pot was put in a green house at 25 to 30° C., on third day after transplantation, the wettable powder of the present invention prepared according to Formulation Example 1 was diluted with water so as to give a predetermined formulation amount, and the surface of the water was treated with the diluted wettable powder. The crop injury on rice was investigated 3 weeks after treatment with the herbicide according to the criteria indicated in Test Example 1.

Turning to `COc1cc(OC)nc(NC(=O)NS(=O)(=O)c2c(C3=NOCCO3)c(C)nn2C)n1` [Comparative Compound 2], the “herbicidal effect, A: Echinochloa crus-galli” value with Echinochloa crus-galli [1], in the series with Echinochloa crus-galli [4] and in the series on Echinochloa crus-galli [7] was 5 (Herbicidal rate 90% or more (almost complete death)) in each case. Further, the “herbicidal effect, C: Monochoria vaginalis” value in the series on Monochoria vaginalis [2], in the series on Monochoria vaginalis [5] and in the series with Monochoria vaginalis [8] was 5 (Herbicidal rate 90% or more (almost complete death)) in each case. Further, the “herbicidal effect, B: Scirpus juncoides” value with Scirpus juncoides [3], with Scirpus juncoides [6] and in the series with Scirpus juncoides [9] was 5 (Herbicidal rate 90% or more (almost complete death)) each time. Besides, the “herbicidal effect, O: Lindernia pyxidaria” value in the series on Lindernia pyxidaria is recorded as 5 (Herbicidal rate 90% or more (almost complete death)). Moreover, the “herbicidal effect, N: Rotala indica” value in the series with Rotala indica is 5 (Herbicidal rate 90% or more (almost complete death)). Further, the “herbicidal effect, a: transplanted rice (Oryza sativa)” value in series [10] is 4 (Herbicidal rate 70% or more and less than 90%). Also, the “herbicidal effect, g: rice transplanted at a depth of 0 cm” value in [11] was 4 (Herbicidal rate 70% or more and less than 90%). Moreover, the “crop injury on rice, a: transplanted rice (Oryza sativa)” value in [12] is recorded as 5 (Herbicidal rate 90% or more (almost complete death)).
